Key:
[1] = system: Phakopsora pachyrhizi (F129L); test: Protective control of soybean rust on soybeans (PHAKPA P2); format: in vivo; details: for % PHAKPA (F129L) Disease level P2 at 4 ppm: protective P2, 4 ppm; for % PHAKPA (F129L) Disease level P2 at 4 ppm / % PHAKPA (F129L) Disease level P2 at 16 ppm: soybean rust F129L; for % PHAKPA (F129L) Disease level P2 at 16 ppm: protective P2, 16 ppm
[2] = system: Phakopsora pachyrhizi (F129L); test: Protective control of soybean rust on soybeans (PHAKPA P6); format: in vivo; details: for % PHAKPA (F129L) Disease level P6 at 4 ppm: protective P6, 4 ppm; for % PHAKPA (F129L) Disease level P6 at 4 ppm / % PHAKPA (F129L) Disease level P6 at 16 ppm: soybean rust F129L; for % PHAKPA (F129L) Disease level P6 at 16 ppm: protective P6, 16 ppm; for PHAKPA (F129L) Disease level (%) P6 at 16 ppm / PHAKPA (F129L) Disease level (%) P6 at 4 ppm: P6 protective, % diseased leaf area
[3] = P2 protective, % diseased leaf area

Row | SMILES | % PHAKPA (F129L) Disease level P2 at 4 ppm [1] [%] | % PHAKPA (F129L) Disease level P2 at 16 ppm [1] [%] | % PHAKPA (F129L) Disease level P6 at 4 ppm [2] [%] | % PHAKPA (F129L) Disease level P6 at 16 ppm [2] [%] | PHAKPA (F129L) Disease level (%) P2 at 4 ppm [1, 3] [%] | PHAKPA (F129L) Disease level (%) P6 at 16 ppm [2] [%] | PHAKPA (F129L) Disease level (%) P2 at 1 ppm ([1]; P2 protective, 1 ppm, % diseased leaf area) [%] | PHAKPA (F129L) Disease level (%) P6 at 4 ppm [2] [%]
1 | CO/N=C(/C(=O)OC)c1cccc(C)c1CO/N=C(\C)c1ccc(Cl)c(Cl)c1C(F)(F)F [compound 429] | 83 | 50 | 67 | 43 | – | – | – | –
2 | CO/C=C(/C(=O)OC)c1cccc(C)c1CO/N=C(\C)c1ccc(Cl)c(Cl)c1C(F)(F)F [compound 430] | 22 | 6 | 37 | 17 | – | – | – | –
3 | CNC(=O)/C(=N/OC)c1cccc(C)c1CO/N=C(\C)c1ccc(Cl)c(Cl)c1C(F)(F)F [compound 431] | 32 | 7 | 40 | 12 | – | – | – | –
4 | CO/C=C(/C(=O)OC)c1cccc(C)c1CO/N=C(\C)c1ccc(-c2ccc(F)cc2)cc1C(F)(F)F [compound 432] | 12 | 0 | 13 | 3 | – | – | – | –
5 | CO/C=C(/C(=O)OC)c1cccc(C)c1CO/N=C(\C)c1ccc(-c2ccccc2)cc1OC(F)(F)F [compound 433] | 83 | 67 | 80 | 57 | – | – | – | –
6 | CNC(=O)/C(=N/OC)c1cccc(C)c1CO/N=C(\C)c1ccc(-c2ccccc2)cc1OC(F)(F)F [compound 435] | 93 | 57 | 87 | 60 | – | – | – | –
7 | CO/C=C(/C(=O)OC)c1cccc(C)c1CO/N=C(\C)c1c(Cl)cc(Cl)cc1OC(F)(F)F [compound 436] | 70 | 15 | 73 | 27 | – | – | – | –
8 | CO/C=C(/C(=O)OC)c1cccc(C)c1CO/N=C(\C)c1ccccc1CC(F)(F)F [compound 437] | 2 | 0 | 8 | 0 | – | – | – | –
9 | CNC(=O)/C(=N/OC)c1cccc(C)c1CO/N=C(\C)c1c(Cl)ccc(F)c1OC(F)(F)F [compound 440] | 93 | 23 | 73 | 23 | – | – | – | –
10 | CNC(=O)/C(=N/OC)c1cccc(C)c1CO/N=C(\C)c1c(Cl)ccc(Cl)c1OC(F)(F)F [compound 441] | 100 | 43 | 97 | 50 | – | – | – | –
11 | CO/C=C(/C(=O)OC)c1cccc(C)c1CO/N=C(\C)c1c(Cl)ccc(F)c1OC(F)(F)F [compound 442] | 100 | 93 | 80 | 77 | – | – | – | –
12 | CO/C=C(/C(=O)OC)c1cccc(C)c1CO/N=C(\C)c1c(Cl)ccc(Cl)c1OC(F)(F)F [compound 444] | 100 | 47 | 83 | 53 | – | – | – | –
13 | CO/C=C(/C(=O)OC)c1cccc(C)c1CO/N=C(\C)c1ccc(Br)cc1C(F)(F)F [compound 445] | 15 | 1 | 30 | 2 | – | – | – | –
14 | CO/C=C(/C(=O)OC)c1cccc(C)c1CO/N=C(\C)c1ccc(C)cc1C(F)(F)F [compound 446] | 2 | 0 | 6 | 0 | – | – | – | –
15 | CO/N=C(/C(=O)OC)c1cccc(C)c1CO/N=C(\C)c1ccc(F)c(F)c1OC(F)(F)F [compound 447] | 7 | 0 | 33 | 1 | – | – | – | –
16 | CNC(=O)/C(=N/OC)c1cccc(C)c1CO/N=C(\C)c1ccc(Cl)c(F)c1OC(F)(F)F [compound 449] | 33 | 10 | 57 | 9 | – | – | – | –
17 | CO/C=C(/C(=O)OC)c1cccc(C)c1CO/N=C(\C)c1ccc(F)c(F)c1OC(F)(F)F [compound 450] | 3 | 1 | 4 | 1 | – | – | – | –
18 | CNC(=O)/C(=N/OC)c1cccc(C)c1CO/N=C(\C)c1ccc(F)c(F)c1OC(F)(F)F [compound 451] | 1 | 0 | 2 | 0 | – | – | – | –
19 | COC=C(C(=O)OC)c1cccc(C)c1CON=C(C)c1ccc(Cl)c(F)c1OC(F)(F)F [compound 452] | 60 | 6 | 70 | 14 | – | – | – | –
20 | CNC(=O)/C(=N/OC)c1cccc(C)c1CO/N=C(/c1ccccc1)C(F)(F)F [compound 458] | 93 | 57 | 83 | 50 | – | – | – | –

Row | SMILES | % PHAKPA (F129L) Disease level P2 at 4 ppm [1] [%] | % PHAKPA (F129L) Disease level P2 at 16 ppm [1] [%] | % PHAKPA (F129L) Disease level P6 at 4 ppm [2] [%] | % PHAKPA (F129L) Disease level P6 at 16 ppm [2] [%] | PHAKPA (F129L) Disease level (%) P2 at 4 ppm [1, 3] [%] | PHAKPA (F129L) Disease level (%) P6 at 16 ppm [2] [%] | PHAKPA (F129L) Disease level (%) P2 at 1 ppm ([1]; P2 protective, 1 ppm, % diseased leaf area) [%] | PHAKPA (F129L) Disease level (%) P6 at 4 ppm [2] [%]
21 | CNC(=O)/C(=N/OC)c1cccc(OC)c1CO/N=C(\C)c1cccc(C(F)(F)F)c1 [compound 461] | 26 | 2 | 52 | 6 | – | – | – | –
22 | COC=C(C(=O)OC)c1cccc(C)c1CON=C(C)c1ccccc1OC(F)(F)F [compound 462] | 37 | 6 | 55 | 10 | – | – | – | –
23 | COC=C(C(=O)OC)c1cccc(C)c1CON=C(C)c1ccc(OC(F)(F)F)cc1Cl [compound 463] | 6 | 0 | 3 | 0 | – | – | – | –
24 | COC=C(C(=O)OC)c1cccc(C)c1CON=C(C)c1ccc(OC)cc1C(F)(F)F [compound 464] | 1 | 0 | 8 | 0 | – | – | – | –
25 | CO/N=C(/C(=O)OC)c1cccc(C)c1CO/N=C(\OC)c1cccc(C)c1 [drawing 970, reference compound] | – | – | – | – | 83 | 57 | – | –
26 | CO/N=C(/C(=O)OC)c1cccc(C)c1CO/N=C(/c1cccc(C)c1)C1CC1 [drawing 971, reference compound] | – | – | – | – | 80 | 37 | – | –
27 | CO/N=C(/C(=O)OC)c1cccc(C)c1CO/N=C(\SC)c1cccc(C)c1 [drawing 972, reference compound] | – | – | – | – | 60 | 30 | – | –
28 | CNC(=O)/C(=N/OC)c1cccc(C)c1CO/N=C(/c1cccc(C)c1)C1CC1 [drawing 975, reference compound] | – | – | – | – | 67 | 67 | – | –
29 | CNC(=O)/C(=N/OC)c1cccc(C)c1CO/N=C(\SC)c1cccc(Cl)c1 [drawing 979, reference compound] | – | – | – | – | 20 | 9 | – | –
30 | CO/N=C(/C(=O)OC)c1cccc(C)c1CO/N=C(/c1cccc(Cl)c1)C1CC1 [drawing 981, reference compound] | – | – | – | – | 83 | 87 | – | –
31 | CO/N=C(/C(=O)OC)c1cccc(C)c1CO/N=C(\SC)c1cccc(Cl)c1 [drawing 982, reference compound] | – | – | – | – | 47 | 18 | – | –
32 | CNC(=O)/C(=N/OC)c1cccc(C)c1CO/N=C(\SC)c1cccc(C(F)(F)F)c1 [drawing 984, reference compound] | – | – | – | – | – | – | 32 | 43
33 | CNC(=O)/C(=N/OC)c1ccccc1CO/N=C(\C)c1ccc(C)cc1 [reference compound] | – | – | – | – | 100 | – | – | 100
34 | CNC(=O)/C(=N/OC)c1ccccc1CO/N=C(\C)c1ccc(Cl)cc1 [reference compound] | – | – | – | – | 40 | – | – | 80
35 | CNC(=O)/C(=N/OC)c1ccccc1CO/N=C(\C)c1cccc(Cl)c1 [reference compound] | – | – | – | – | 43 | – | – | 80
36 | CNC(=O)/C(=N/OC)c1ccccc1CO/N=C(\C)c1cc(Cl)cc(Cl)c1 [reference compound] | – | – | – | – | 100 | – | – | 97
37 | CNC(=O)/C(=N/OC)c1ccccc1CO/N=C(\C)c1ccccc1 [reference compound] | – | – | – | – | 87 | – | – | 100
38 | CNC(=O)/C(=N/OC)c1ccccc1CO/N=C(\C)c1cccc(C(F)(F)F)c1 [reference compound] | – | – | – | – | 12 | – | – | 38
39 | CNC(=O)/C(=N/OC)c1ccccc1CO/N=C(\C)c1ccc(Cl)c(Cl)c1 [reference compound] | – | – | – | – | 43 | – | – | 77

Reference: US20230172204A1 (BASF SE, priority 2020, published 2023)
